Experimental data from patent US11629141B2, “Proteasome inhibitors and uses thereof” (CORNELL UNIVERSITY, priority 2015, dated 2023).
pEC50, pIC50, pKi: −log10 of the molar value. Like-named read-outs stand apart in the source and are kept apart here.

Experiments:
[1] = molecular target: T1, human immunoproteasome β5i (Homo sapiens, UniProt P28062); assay: IC50 against chymotryptic β5i activity of human immunoproteasome (96-well plate, Ac-ANW-AMC); type: biochemical; details: β5i; substrate Ac-ANW-AMC; read-out: IC50 Hu i-20S (Ac-ANW-AMC)
T1 construct: purchased Boston Biochem Inc
Description: A 96-well-plate assays were used to determine the IC50s against the chymotryptic β5 activities of the proteasomes. Both human constitutive proteasome and immunoproteasome were purchased from Boston Biochem Inc. 1 μL of 100× compound in DMSO at designated concentrations were spotted at the bottom of the wells. DMSO was used as a control. […] The hydrolysis of the substrate over time in each well was monitored at excitation 360 nm, emission 460 nm for 90 minutes. IC50s were estimated by fitting the velocities of hydrolysis against compound concentrations using PRISM. […] SDS (0.02%) was used as activator, and 0.01% BSA was used in the reaction buffer.

hu i-20S β5i = molecular target: T2, hu i-20S β5i (Homo sapiens, UniProt P28062); assay: Kinetic analysis, substrate titration of hu i-20S steady state velocities; type: biochemical
T2 construct: purchased Boston Biochem Inc
Description: FIGS. 1A-1E are graphs showing inhibition modality of PKS21004 against human proteasomes. Washout of c-20S from the preincubated c-20S and […] to recover the β5c activity (FIG. 1A). Substrate titration of hu i-20S (FIG. 1B) and c-20S (FIG. 1D) steady state velocities in the presence of PKS21004 at the concentrations indicated next to each curve. Data as in (FIG. 1B) were plotted double reciprocal in (FIG. 1C), and (FIG. 1D) in (FIG. 1E).
A washout experiment was used to confirm the reversibility of this class of proteasome inhibitors, as expected from their non-covalent chemistry.

β1i = molecular target: T3, β1i (Homo sapiens, UniProt P28065); assay: Inhibition of β1i activity; type: biochemical; details: no inhibition <33 μM
T3 construct: purchased Boston Biochem Inc
Description: (§1) The foregoing features of these AsnEDA encouraged a further round of SAR studies (Table 5) based on varying the carboxylic acid at the ethylenediamine, the N-cap at the Asn, and the side chain of the Asn, based on PKS21004. All compounds listed in the Table 5 were synthesized as described in Examples 6-77. All final compounds were confirmed by NMR and HRMS. IC50s of all compounds against β5i and β5c (Table 5), β1i, β2i, β1c and β2c were determined following a reported method (Lin et al., “N,C-Capped Dipeptides With Selectivity for Mycobacterial Proteasome Over Human Proteasomes: Role of S3 and S1Binding Pockets,” J Am Chem Soc. 135:9968-9971 (2013), which is hereby incorporated by reference in its entirety). […] The [1,1′-biphenyl]-3-carboxamide of PKS21004 was then modified with the following substituents: 4′-fluoro (PKS21026), 4′-cyano (PKS21028), 4-fluoro (PKS21196), 4,3′-difluoro (PKS21195) and 4,2′-difluoro (PKS21187).

β2i = molecular target: T4, β2i (Homo sapiens, UniProt P40306); assay: Inhibition of β2i activity; type: biochemical; details: no inhibition <33 μM
T4 construct: purchased Boston Biochem Inc
Description: as §1

β1c = molecular target: T5, β1c (Homo sapiens, UniProt P28072); assay: Inhibition of β1c activity; type: biochemical; details: no inhibition <33 μM
T5 construct: purchased Boston Biochem Inc
Description: as §1

β2c = molecular target: T6, β2c (Homo sapiens, UniProt Q99436); assay: Inhibition of β2c activity; type: biochemical; details: no inhibition <33 μM
T6 construct: purchased Boston Biochem Inc
Description: as §1

Plasmodium falciparum = assay: Growth of Plasmodium falciparum in red blood cells (SYBR Green, 72 hours); type: cell-based
Description: Continuous in vitro cultures of Plasmodium falciparum: were maintained in human red blood cells (RBC) diluted to a hematocrit of 5% in RPMI 1640 medium with HEPES and Hypoxanthine and completed with 0.5% Albumax II (Invitrogen), 0.25% sodium bicarbonate, and 0.1 mg/ml gentamicin. Parasites were incubated at 37° C. in a gas mixture of 5% oxygen, 5% carbon dioxide, and 90% nitrogen.
Parasite sensitivity to novel compounds were determined using a SYBR Green (Invitrogen S1046) drug assay protocol. P. falciparum of various clinic stains were cultured with compounds at concentrations in a series of dilution in a clear, sterile 96-well plate for 72 hours. Subsequently, 150 μl of the cultures were transferred to a black 96-well plate and placed in the freezer for red blood cell lysis. The plates were thawed and suspended in a Sybr Green Lysis buffer. GraphPad Prism was used to analyze the raw data collected […]. Drug concentrations were converted to logarithms, normalized, and then curve fitted by non-linear regression to obtain EC50 values.
Plasmodium falciparum: parasites were cultured in human red cells. Drug assays were run in 96 well plates at a total volume of 200 μl. Assays were set up at a starting parasitemia (percent of infected red cells) of 0.5%. Test compounds were plated at concentrations of 2778 nM to 0.4 nM. The test plates were grown under standard low oxygen conditions at 37° C. for 72 hours. At that time the plates were prepared for growth determination, first the plates were frozen and thawed to lyse the red blood cells, 150 μl of the lysed thawed culture was transferred to a black 96 well plate, and mixed in a lysis buffer with SYBR green DNA dye. The fluorescence of each well was recorded in a plate reader with excitation wavelength 490 nm and emission wavelength 530 nm and normalized relative to DMSO control. The EC50s were determined using Prism software.

P. berghei = assay: Killing of P. berghei sporozoite stage in HepG2 cells; type: cell-based; details: Plasmodium berghei
P. falciparum schizonts = assay: Accumulation of poly-ubiquitinated proteins in P. falciparum schizonts; type: cell-based; details: 4 hours post treatment

In the case of `CC(C)(C)NC(=O)C[C@H](NC(=O)CCc1ccccc1)C(=O)NCCNC(=O)c1cccc(-c2ccccc2)c1` [PKS21004], the pIC50 [1] was 7.24, the pKi (hu i-20S β5i) was 7.11 and the “α for i-20S (β5i)” value (hu i-20S β5i; fit to equation for noncompetitive inhibitors) was 0.28 and ≈ 0.28. For the same molecule, the “modality of inhibition of β5i” value (hu i-20S β5i; with respect to substrate) was “noncompetitive inhibitor”, the “IC50 against β1i” value (β1i) was “no inhibition” and the “IC50 against β2i” value (β2i) was “no inhibition”. The “IC50 against β1c” value (β1c) was “no inhibition”, the “IC50 against β2c” value (β2c) was “no inhibition” and the pEC50 (Plasmodium falciparum; D6, Erythrocyte, read-out: EC50s against P. falciparum strain D6) was 8.40. It also gave a pEC50 (Plasmodium falciparum; DD2, Erythrocyte, read-out: EC50s against P. falciparum strain Dd2) of 8.32, an EC50 (Plasmodium falciparum; Erythrocyte, P.f. 3D7, growth in red blood cells, read-out: EC50 (nM) (P.f.)) of 4.6 nM and a pEC50 (Plasmodium falciparum; Erythrocyte, read-out: EC50s against P. falciparum strain IPC 3663) of 8.22. For the same molecule, the pEC50 (Plasmodium falciparum; Erythrocyte, read-out: EC50s against P. falciparum strain IPC 4884) was 8.28, the pEC50 (Plasmodium falciparum; Erythrocyte, read-out: EC50s against P. falciparum strain IPC 4912) was 8.24 and the pEC50 (Plasmodium falciparum; Erythrocyte, read-out: EC50s against P. falciparum strain IPC 5188) was 8.82. For the same molecule, the pEC50 (Plasmodium falciparum; Erythrocyte, read-out: EC50s against P. falciparum strain Sb1-a6) was 8.32, the pEC50 (Plasmodium falciparum; Erythrocyte, read-out: EC50s against P. falciparum strain V1S) was 8.77 and the pEC50 (Plasmodium falciparum; HB3, Erythrocyte, read-out: EC50s against P. falciparum strain HB3) was 8.00. The pEC50 (P. berghei; read-out: EC50 killing of P. berghei, compound & sporozoites incubated with HepG2, media replaced after 14 hours) was 7.68, the pEC50 (P. berghei; compound & sporozoites incubated with HepG2, media replaced after 6 hours, read-out: EC50 killing of P. berghei, 6 hours) was 7.39 and the pEC50 (P. berghei; sporozoites pre-treated 30 minutes on ice, added to HepG2, media replaced after 4 hours, read-out: EC50 killing of P. berghei, sporozoites pre-treated (P/T)) was 6.80. For the same molecule, the “accumulation of poly-ubiquitinated proteins” value (P. falciparum schizonts) was “accumulation of poly-ubiquitinated proteins”.
